From publication PMC6093650, “Antidepressive and anxiolytic effects of ostruthin, a TREK-1 channel activator” (PLoS ONE, 2018)

Experiments:
[1] = test system: mice anxiety-like behavior; assay: elevated plus maze; assay type: in vivo; settings: amlodipine experiment: single compound vs PBS, ostruthin 5 mg/kg or amlodipine 10 mg/kg, n = 6
Description: (§1) Male ICR mice (n = 317 in total) aged 5 weeks and weighing 32 ± 2 g were purchased from Shimizu Laboratory Supplies (Kyoto, Japan). For the social defeat stress test, we used 28 C57BL/6J mice (5 weeks old, Shimizu Laboratory Supplies) and 30 ICR mice (7–8 weeks old, Charles River Labs Japan, Yokohama, Kanagawa, Japan). Mice were maintained for at least 1 week prior to experiments. Animals were kept in groups in plastic cages. They had free access to food and water, and were kept in a 12-h light/dark cycle (08:00–20:00). Experiments were carried out between 10:00 and 18:00 in a quiet and air-conditioned experimental room, in which mice were habituated for at least 30 min before each experiment. Animal experiments were performed in accordance with the guidelines of the Physiological Society of Japan and were approved by the Committees on Animal Experiments at Kansai Medical University and the Kurashiki University of Science and the Arts. Ostruthin was initially dissolved in DMSO at higher concentration (100 mM) and then diluted in phosphate-buffered saline (PBS). The diluted solution was mixed vigorously for more than 10 min before the experiments, and an equal volume of DMSO was added to PBS as a control. PBS and ostruthin were administered intraperitoneally 30 min before mice behavioral tests (0.01 ml/g body weight). Each animal was used only once, except for the wheel running test, which was carried out immediately after elevated plus maze.
The elevated plus maze apparatus consisted of four arms set in a cross pattern from a neutral central square (6 × 6 cm). Two opposite arms were delimited by vertical walls (closed arms, 30 × 15 × 6 cm), whereas the other two arms had unprotected edges (open arms, 30 × 6 cm). The maze was elevated 40 cm above the floor. At the beginning of each 5 min test session, a mouse was placed in the central neutral area, facing one of the open arms. The total number of the entries to open arms and time spent in the open arms were measured. After removal of the animal, the apparatus was cleaned and wiped.

[2] = test system: depression-like behavior of mice; assay: tail suspension test; assay type: in vivo; settings: amlodipine experiment: single compound vs PBS, ostruthin 5 mg/kg or amlodipine 10 mg/kg, n = 9 and 13
Description: as §1
The tail suspension test was performed in accordance with a method reported previously. The mouse was hung on a hook using adhesive tape placed 2 cm from the extremity of its tail 50 cm above the table. The amount of time spent immobile was recorded for 5 min.

TREK-2 channel [3] = molecular target: T1, TREK-2 channel (Homo sapiens, UniProt P57789); assay: whole-cell patch-clamp of TREK-2 currents transiently expressed in 293T cells; assay type: cell-based; settings: bupivacaine 3 mM, after ostruthin
T1 construct: expressed in transfected cells; host or cells: 293T (transient, calcium-phosphate transfection)
T1 sequence (P57789 1-538): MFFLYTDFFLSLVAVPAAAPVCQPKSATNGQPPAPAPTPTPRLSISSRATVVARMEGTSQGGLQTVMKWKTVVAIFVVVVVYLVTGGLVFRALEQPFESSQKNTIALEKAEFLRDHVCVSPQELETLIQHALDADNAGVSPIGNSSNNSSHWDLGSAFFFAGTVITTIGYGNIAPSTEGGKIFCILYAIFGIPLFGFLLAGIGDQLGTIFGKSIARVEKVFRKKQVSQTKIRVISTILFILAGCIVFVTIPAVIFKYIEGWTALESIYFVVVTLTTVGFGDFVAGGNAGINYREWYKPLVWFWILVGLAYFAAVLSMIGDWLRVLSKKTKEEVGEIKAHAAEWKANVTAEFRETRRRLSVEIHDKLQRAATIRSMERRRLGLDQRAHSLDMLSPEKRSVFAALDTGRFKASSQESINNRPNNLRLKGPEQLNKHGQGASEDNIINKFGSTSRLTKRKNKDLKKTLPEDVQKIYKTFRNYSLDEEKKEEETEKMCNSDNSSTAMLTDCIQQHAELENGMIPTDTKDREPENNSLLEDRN
Description: (§2) For recordings of K^+ channel currents, we prepared stable cell lines for TREK-1, TWIK-related acid-sensitive K^+ channel (TASK-1), strongly inwardly rectifying K^+ channel (Kir2.1), and human ether-a-go-go-related gene (HERG-1) channels and transiently expressed other channels in 293T cells using a calcium-phosphate transfection method. For the establishment of the stable lines, we used lentiviral vectors, and the preparation methods for the lentiviral vectors were described in our previous report. TR-1 cells, which stably expressed TREK-1 channel and were grown on a small cover glass (3 × 18 mm), were placed in a recording chamber with an internal volume of 200 μl. Whole-cell currents were recorded in Tyrode solution using an Axopatch 200B amplifier (Axon Instruments, Foster City, CA) at 25°C. […] Perfusion (100 μl/min) was continued to maintain the water level throughout recordings. pH and osmotic pressure of solutions were measured with a pH meter (Horiba, Kyoto, Japan) and a freezing point osmometer (Knauer, Berlin, Germany), respectively.
TREK-1 channels are known to be activated by low pH and mechanical stretch. […] To test these possibilities, we measured the pH of Tyrode solution before and after addition of 100 μM ostruthin, and observed no significant change (from 7.31 ± 0.17 to 7.33 ± 0.22, p = 0.645, paired t-test, n = 6). […]

TREK-2 channel [4] = molecular target: T1, TREK-2 channel; design: method as in PMID 10880510; settings: 100 μM; cited from earlier work
TREK-1 channel = molecular target: T2, TREK-1 channel (Homo sapiens, UniProt O95069); assay: whole-cell patch-clamp of TREK-1 currents in TR-1 cells (293T stably expressing TREK-1); assay type: cell-based; settings: bupivacaine 3 mM, after 100 μM ostruthin
T2 construct: expressed in transfected cells
T2 sequence (O95069 1-426): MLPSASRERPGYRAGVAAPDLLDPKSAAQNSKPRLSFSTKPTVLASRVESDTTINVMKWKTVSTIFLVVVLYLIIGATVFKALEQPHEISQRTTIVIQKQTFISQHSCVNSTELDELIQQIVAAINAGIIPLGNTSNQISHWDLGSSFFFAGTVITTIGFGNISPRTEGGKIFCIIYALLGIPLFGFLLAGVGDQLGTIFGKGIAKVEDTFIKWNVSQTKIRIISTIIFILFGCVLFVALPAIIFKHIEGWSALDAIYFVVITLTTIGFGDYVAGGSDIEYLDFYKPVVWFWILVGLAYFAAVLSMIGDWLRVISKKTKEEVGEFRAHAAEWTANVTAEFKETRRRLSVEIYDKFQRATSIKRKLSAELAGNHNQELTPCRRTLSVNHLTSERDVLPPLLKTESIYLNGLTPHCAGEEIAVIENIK
Description: as §2
We previously prepared a lentiviral vector that expressed the TREK-1 channel and using this vector we established a cell line, TR-1, which stably expressed the channel. […] Immediately after whole-cell access, small outward currents were recorded in response to depolarizing step pulses (Fig 1A, 0 min). […]

Compound	number of entries to the open arm [1]	time spent immobile [2]	block of TREK-2 current (TREK-2 channel [3])	sensitivity of TREK-2 channel to bupivacaine (TREK-2 channel [4])	inhibition of the ostruthin-increased TREK-1 current (TREK-1 channel)
CCOC(=O)C1=C(COCCN)NC(C)=C(C(=O)OC)C1c1ccccc1Cl (centres unmarked) [amlodipine, reference compound]	non-significantly decreased	non-significantly decreased	–	–	–
CCCCN1CCCCC1C(=O)Nc1c(C)cccc1C (centres unmarked) [bupivacaine, reference compound]	–	–	almost blocked the current	insensitive	inhibited nearly completely
